Test results reported in patent US20080033006A1, “1,2,4-Triazolo[ 1,5-A] Pyridines as Gastric Acid Secretion Inhibitors” (Altana Pharma AG, priority 2004, published 2008).

Experiments:
[1] = tested on: pentagastrin-stimulated acid secretion of the perfused rat stomach; assay: Secretion-inhibiting action on the perfused rat stomach (pentagastrin-stimulated acid secretion); assay type: in vivo; conditions: anesthetized CD rat, dose 1 μmol/kg i.d.; for inhibition in vivo at 1 µmol/kg: intraduodenal
From the text: In Table A which follows, the influence of the compounds according to the invention on the pentagastrin-stimulated acid secretion of the perfused rat stomach after intraduodenal administration in vivo is shown.
The abdomen of anesthetized rats (CD rat, female, 200-250 g; 1.5 g/kg i.m. urethane) was opened after tracheotomy by a median upper abdominal incision and a PVC catheter was fixed transorally in the esophagus and another via the pylorus such that the ends of the tubes just projected into the gastric lumen. The catheter leading from the pylorus led outward into the right abdominal wall through a side opening.
After thorough rinsing (about 50-100 ml), warm (37° C.) physiological NaCl solution was continuously passed through the stomach ([…], pH 6.8-6.9; Braun-Unita I). The pH (pH meter 632, glass electrode EA 147; φ=5 mm, Metrohm) and, by titration with a freshly prepared 0.01N NaOH solution to pH 7 (Dosimat 665 Metrohm), the secreted HCl were determined in the effluent in each case collected at an interval of 15 minutes.
The gastric secretion was stimulated by continuous infusion of 1 μg/kg (=1.65 ml/h) of i.v. pentagastrin (left femoral vein) about 30 min after the end of the operation (i.e. after determination of 2 preliminary fractions). The substances to be tested were administered intraduodenally in a 2.5 ml/kg liquid volume 60 min after the start of the continuous pentagastrin infusion.
The body temperature of the animals was kept at a constant 37.8-38° C. by infrared irradiation and heat pads (automatic, stepless control by means of a rectal temperature sensor).

| melting point | SMILES | inhibition in vivo at 1 µmol/kg [1] | Inhibition of acid secretion [1] |
| --- | --- | --- | --- |
| 139.8 °C | CCc1cccc(C)c1CNc1cc(C(=O)OC)cn2nc(C)nc12 [Example 1, 8-(2-Ethyl-6-methylbenzylamino)-2-methyl[1,2,4]triazolo[1,5-a]pyridine-6-carboxylic acid methyl ester] | – | – |
| 264.1 °C | CCc1cccc(C)c1CNc1cc(C(=O)O)cn2nc(C)nc12 [Example 2, 8-(2-Ethyl-6-methyl-benzylamino)-2-methyl[1,2,4]triazolo[1,5-a]pyridine-6-carboxylic acid] | – | – |
| – | CCc1cccc(C)c1CNc1cc(C(=O)N(C)C)cn2nc(C)nc12 [Example 3, 8-(2-Ethyl-6-methylbenzylamino)-N,N,2-trimethyl[1,2,4]triazolo[1,5-a]pyridine-6-carboxamide] | > 25% | – |
| – | CCc1cccc(C)c1CNc1cc(C(=O)NCCOC)cn2nc(C)nc12 [Example 4, 8-(2-Ethyl-6-methylbenzylamino)-N-(2-methoxyethyl)-2-methyl[1,2,4]triazolo-[1,5a]-pyridine-6-carboxamide] | – | <25% |
| 98.7 °C | CCc1cccc(C)c1CNc1cc(COC)cn2nc(C)nc12 [Example 5, 8-(2-Ethyl-6-methylbenzylamino)-6-methoxymethyl-2-methyl[1,2,4]triazolo-[1,5-a]pyridine] | > 25% | – |
| 180.3 °C | CCc1cccc(C)c1CNc1cc(CO)cn2nc(C)nc12 [Example 6, 8-(2-Ethyl-6-methylbenzylamino)-6-hydroxymethyl-2-methyl[1,2,4]triazolo-[1,5-a]pyridine] | < 25% | – |
| 235.8 °C | CCc1cccc(C)c1CNc1cc(CN(C)C)cn2nc(C)nc12.Cl [Example 7, 8-(2-Ethyl-6-methylbenzylamino)-6-dimethylaminomethyl-2-methyl[1,2,4]triazolo[1,5-a]pyridine hydrochloride] | > 25% | – |
| 179 °C | CCc1cccc(C)c1CNc1cc(CNC)cn2nc(C)nc12 [Example 8, 8-(2-Ethyl-6-methylbenzylamino)-6-methylaminomethyl-2-methyl[1,2,4]triazolo-[1,5-a]-pyridine] | > 25% | – |
| – | CCc1cccc(C)c1CNc1cc(CN)cn2nc(C)nc12 [Example 9, 8-(2-Ethyl-6-methylbenzylamino)-6-aminomethyl-2-methyl[1,2,4]triazolo-[1,5-a]pyridine] | < 25% | – |
| 97.2 °C | CCc1cccc(C)c1CNc1cc(CN2CCOCC2)cn2nc(C)nc12 [Example 10, 8-(2-Ethyl-6-methylbenzylamino)-6-morpholinomethyl-2-methyl[1,2,4]triazolo-[1,5-a]-pyridine] | < 25% | – |
| 158.5 °C | CCc1cccc(C)c1CNc1cc(Cn2ccnc2)cn2nc(C)nc12 [Example 11, 8-(2-Ethyl-6-methylbenzylamino)-6-(imidazol-1-ylmethyl)-2-methyl[1,2,4]triazolo-[1,5-a]-pyridine] | > 25% | – |
| 120.2 °C | CCc1cccc(C)c1CNc1cc(COCCOC)cn2nc(C)nc12.Cl [Example 13, 8-(2-Ethyl-6-methylbenzylamino)-6-(2-methoxyethoxymethyl)-2-methyl-[1,2,4]triazolo[1,5-a]pyridine hydrochloride] | > 25% | – |
